Source: patent US20050074744A1, “Assays for evaluating anti-osteoarthritic activity” (priority 2003, published 2005)

Key:
collagenase 3 RNA = experiment: Quantitative real-time RT-PCR of collagenase 3 RNA in IL-1β-treated ACGs; format: cell-based, human; details: ACG, 24 hours
Experimental: (§1) ACGs were constructed from the human chondrocyte strain Cc 05912 1°, which was isolated and propagated in Dubelcco's-Modified Eagle's Medium with. 10% fetal bovine serum (DMEM/10% FBS). After propagation, the cells were used to assemble ACGs on type II collagen coated Millipore Millicell-CM filters at a density of 2 million cells/cm^2, using the procedure described in U.S. Pat. No. 5,326,357. The ACGs were grown in defined ACG media (DMEM/2×ITS×(Invitrogen # 51500-056), 2% Human Serum Albumin) supplemented with 5 ng/ml TGF-β2 and 100 μg/ml ascorbic acid. After three weeks in culture, the levels of aggrecan and collagen type II expression in the ACGs peaked and leveled off. […]
(§2) After incubation with IL-1β for 24 hours, a group of the ACGs from Example 2 were harvested for quantitative real-time RT-PCR by snap freezing them in LN2. For quantitative real-time RT-PCR total RNA was isolated from the ACGs with TRIzol™ Reagent (Invitrogen # 15596-026) with subsequent cleanup using the Qiagen Rneasy™ Mini Kit (Qiagen # 74104). Contaminating DNA was removed from total RNA samples using the Ambion DNA-free kit (Ambion # 1906). cDNA synthesis was performed on 1 […] of each sample using the Amersham Ready-To-Go You-Prime First-Strand Beads™ (Amersham # 27-9264-01) primed with oligo dT. Reverse transcriptase activity was measured using the PicoGreen™ dsDNA quantitation Kit (Molecular Probes # P-7589). […]

aggrecanase 1 RNA = experiment: Quantitative real-time RT-PCR of aggrecanase 1 RNA in IL-1β-treated ACGs; format: cell-based, human; details: ACG, 24 hours
Experimental: as §1, §2

aggrecanase 2 RNA = experiment: Quantitative real-time RT-PCR of aggrecanase 2 RNA in IL-1β-treated ACGs; format: cell-based, human; details: ACG, 24 hours
Experimental: as §1, §2

stromelysin RNA = experiment: Quantitative real-time RT-PCR of stromelysin RNA in IL-1β-treated ACGs; format: cell-based, human; details: ACG, 24 hours
Experimental: as §1, §2

[1] = system: articular cartilage grafts (ACGs); experiment: Histological assessment (toluidine blue) of proteoglycan and collagen levels in ACGs; format: cell-based, human; details: ACG; for presence or loss of proteoglycans, toluidine blue stain: 24 hours
Experimental: ACGs were constructed from the human chondrocyte strain Cc 05912 1°, which was isolated and propagated in Dubelcco's-Modified Eagle's Medium with. 10% fetal bovine serum (DMEM/10% FBS). After propagation, the cells were used to assemble ACGs on type II collagen coated Millipore Millicell-CM filters at a density of 2 million cells/cm^2, using the procedure described in U.S. Pat. No. 5,326,357. The ACGs were grown in defined ACG media (DMEM/2×ITS×(Invitrogen # 51500-056), 2% Human Serum Albumin) supplemented with 5 ng/ml TGF-β2 and 100 μg/ml ascorbic acid. After three weeks in culture, the levels of aggrecan and collagen type II expression in the ACGs peaked and leveled off.
After three weeks, the IL-1β (R&D Systems # 201-LB) and DBH incubations began. All of the preincubations and subsequent incubations were performed in DMEM. First all of the ACGs were washed twice with DMEM. Sample 1 ACGs were harvested for histology and gene expression analysis at the onset of the experiment. Next, 2 hour preincubations were performed on four groups, in triplicate for both histology and gene expression analysis. Sample 2 ACGs received 250 μl of DMEM to the inside and outside of the ACG. Sample 3 ACGs received the same. Sample 4 ACGs received 5 μm DBH in the same volumes as the other groups to the inside and outside of the Millicell filter containing the ACGs. Sample 5 ACGs received DMSO in the same volume as the DBH group as a vehicle control. The ACGs were then incubated for 2 hours. After the 2 hour preincubation with DBH, IL-1β incubation was added. Sample 2 received another 250 μl of DMEM in addition to the 250 μl that was added at the preincubation step. Sample 3 received 250 μl, inside and out, of DMEM with IL-1β at a final concentration of 2 ng/ml. Sample 4 also received IL-1β with the addition of more DBH to compensate for the volume change of DMEM to keep the concentration of 5 μm. Sample 5 also received IL-1β with an adjustment of the DMSO levels to compensate for the volume change of the DMEM.
After incubation with-lL-1β for 24 hours, a group of the ACGs from Example 2 were fixed in 10% neutral buffered formalin and embedded in paraffin. Sections were cut and stained with toluidine blue to assess the presence or loss of proteoglycans in the ACGs.

collagenase 1 RNA = experiment: Quantitative real-time RT-PCR of collagenase 1 RNA in IL-1β-treated ACGs; format: cell-based, human; details: ACG, 24 hours
Experimental: as §1, §2

[2] = system: Hartley guinea pig model of osteoarthritis; details: U.S. Pat. No. 5,591,740; cited from earlier work
[3] = system: chondrocyte monolayer cultures; details: U.S. Pat. No. 5,591,740; cited from earlier work
[4] = 5 μm DBH (2 hour preincubation) + IL-1β 2 ng/ml

Q: With “IL-1β: inflammatory cytokine (R&D Systems # 201-LB) used to induce osteoarthritic cartilage damage in ACGs” as the molecule, how does the “Fold Induction by IL-1β, collagenase 3” value (collagenase 3 RNA; IL-1β 2 ng/ml, RNA by Q RT-PCR) read?
A: 17

Q: And the “Fold Induction by IL-1β, aggrecanase 1” value (aggrecanase 1 RNA; IL-1β 2 ng/ml, RNA by Q RT-PCR)?
A: 4

Q: And the “Fold Induction by IL-1β, aggrecanase 2” value (aggrecanase 2 RNA; IL-1β 2 ng/ml, RNA by Q RT-PCR)?
A: 4

Q: And the “Fold Induction by IL-1β, stromelysin” value (stromelysin RNA; IL-1β 2 ng/ml, RNA by Q RT-PCR)?
A: 168

Q: What about the “presence or loss of proteoglycans, toluidine blue stain” value ([1]; IL-1β 2 ng/ml alone) of the same molecule?
A: marked loss of proteoglycans

Q: And the “loss of proteoglycans and collagen, histological staining” value ([1]; IL-1β alone)?
A: causes the loss of proteoglycans and collagen

Q: What about the “Fold Induction by IL-1β, collagenase 1” value (collagenase 1 RNA; IL-1β 2 ng/ml, RNA by Q RT-PCR) of the same molecule?
A: 183

Q: Which results are given for `NC1=N/C(=C2/CCNC(=O)c3[nH]ccc32)C(=O)N1` [DBH, debromohymenialdesine]?
A: % reduction of IL-1β-induced gene expression with DBH, collagenase 3 (collagenase 3 RNA; [4]): 55%; % reduction of IL-1β-induced gene expression with DBH, aggrecanase 1 (aggrecanase 1 RNA; [4]): 65%; % reduction of IL-1β-induced gene expression with DBH, aggrecanase 2 (aggrecanase 2 RNA; [4]): 56%; % reduction of IL-1β-induced gene expression with DBH, stromelysin (stromelysin RNA; [4]): 57%; presence or loss of proteoglycans, toluidine blue stain ([1]; IL-1β 2 ng/ml and 5 μm DBH): decreased loss of proteoglycans; loss of proteoglycans and collagen, histological staining ([1]; IL-1β and DBH): reduces the loss of proteoglycans and collagen; % reduction of IL-1β-induced gene expression with DBH, collagenase 1 (collagenase 1 RNA; [4]): 66%; preexisting cartilage damage [2]: reduces preexisting cartilage damage; IL-1 induced degradation of matrix proteins [3]: inhibits IL-1 induced degradation of matrix proteins
